{"source": "patent US8129425B2", "about": "“Small organic molecule regulators of cell proliferation” (Curis, Inc., priority 2000, dated 2012)", "key": {"[1]": {"system": "cerebellar neuron precursors", "test": "Cerebellar neuron precursor proliferation (3H-thymidine incorporation)", "format": "cell-based, rat", "conditions": "absence of Hh protein treatment", "method": "In order to test the efficacy of Hedgehog signaling agonists, the ability of the agonists to stimulate the proliferation of cerebellar neuron precursors was determined. Cerebellar granule neuron precursors are known to respond to Hh protein by proliferating. To test the agonists, cerebellar neurons were dissected out of postnatal (one week) rat brains, and placed into primary cell culture. Treatment agents were added once, on the first day of culture (0 DIV). Cells were left in culture until 2 DIV, when 3H-thymidine was added for 5 hours; the amount of incorporation by the cells of this 3H-thymidine provides a measure of the level of proliferation of the cells. Cells were then lysed, and the incorporation of 3H-thymidine was determined. The positive control was Hh protein, at 1.0 μg/ml final concentration. Hh protein alone caused approximately a 20-fold increase in 3H-thymidine incorporation, consistent with the known ability of Shh to stimulate proliferation of these cells. Non-Hh-protein-stimulated cells, including cells treated with control vehicle (DMSO), had very low levels of proliferation. […] At 5.0 μM, the p-cyanophenyl compound B caused 10.2-fold induction of 3H-thymidine incorporation. […] At 1.0, 0.3, or 0.1 μM, D caused 16-, 17-, or 13-fold induction, respectively, of 3H thymidine incorporation into the cells."}, "Ptc-1": {"system": "Ptc-1", "test": "Quantitative RT-PCR (TaqMan) of Ptc-1 transcript in C3H 10T1/2 cells", "format": "cell-based, Murine", "conditions": "compound concentration 8 μM", "method": "(§1) The compounds of FIGS. 32 and 33 were tested for their ability to activate transcription of two well-studied targets of the Hedgehog pathway: the transcription factor Gli-1, and the putative Hedgehog receptor component Ptc-1.\n(§2) Murine C3H 10T1/2 cells were seeded at approximately 200,000 cells per well in a 24-well plate in complete medium (10% FBS). After 24 hr, medium was removed and replaced with “starvation” medium (0.5% FBS) containing dilutions of compound or Hh protein. After 16-18 hr, total RNA was prepared using TriZol (Life Technologies, inc.).\n(§3) One-microgram aliquots of total RNA were used to prepare random hexamer-primed cDNA with […] Reverse transcriptase (Life Technologies, Inc.).\n(§4) To measure the relative levels of Gli-1 and Ptc-1 transcripts, TaqMan assays (PE Biosystems) were performed with an ABI Prism 7700 Sequence Detection System. As an internal control, GAPDH transcript levels were simultaneously measured in each reaction. Data were analyzed using Sequence Detector v 1.6.3 (Perkin Elmer)."}, "Gli-1": {"system": "Gli-1", "test": "Quantitative RT-PCR (TaqMan) of Gli-1 transcript in C3H 10T1/2 cells", "format": "cell-based, Murine", "conditions": "compound concentration 8 μM", "method": "as §1, §2, §3, §4"}}, "data": [{"smiles": "COc1ccc(CN(C(=O)c2sc3ccccc3c2Cl)C2CCC(N)CC2)cc1-c1cccc([N+](=O)[O-])c1", "note": "(stereo not drawn) [A]", "values": [{"measurement": "stimulation of 3H-thymidine incorporation", "setting": "[1]", "result": "significantly stimulate 3H-thymidine incorporation"}, {"measurement": "induction of Ptc-1 relative to that obtained with the optimal concentration of Hh protein", "setting": "Ptc-1", "result": "~40", "unit": "%"}, {"measurement": "induction of Gli-1 relative to that obtained with the optimal concentration of Hh protein", "setting": "Gli-1", "result": "~40", "unit": "%"}]}]}
